Experimental data reported in patent US20220041681A1 (MEDIMMUNE LIMITED, priority 2016, published 2022).

System: Healthy volunteer
Assay: Phase 1 single-ascending dose study
Conditions: for TEAE: Abdominal distension / TEAE: Abdominal pain / TEAE: Application site erosion / TEAE: Arrhythmia / TEAE: Atrioventricular block second degree / TEAE: Cardiac Disorders / TEAE: Decreased appetite / TEAE: Diarrhea / TEAE: Dizziness / TEAE: Gastrointestinal Disorders / TEAE: Headache / TEAE: Immune System Disorders / TEAE: Injury associated with device / TEAE: Injury poisoning and procedural complications / TEAE: Metabolism and nutrition disorders / TEAE: Musculoskeletal and connective tissue disorders / TEAE: Musculoskeletal chest pain / TEAE: Nasopharyngitis / TEAE: Nausea / TEAE: Nervous system disorders / TEAE: Oropharyngeal pain / TEAE: Procedural dizziness / TEAE: Respiratory, thoracic and mediastinal disorders / TEAE: Seasonal allergy / TEAE: Subjects with at least one event / TEAE: Ventricular extrasystoles / TEAE: Vomiting: N = 6, subjects n (%)

CCCCCCCCCCCCCCCC(=O)N[C@@H](CCC(=O)NCCCC[C@H](NC(=O)[C@H](CC(=O)O)NC(=O)[C@H](CO)NC(=O)C(NC(=O)[C@H](Cc1ccccc1)NC(=O)C(NC(=O)CNC(=O)[C@H](CCC(N)=O)NC(=O)[C@H](CO)NC(=O)[C@@H](N)Cc1cnc[nH]1)[C@@H](C)O)[C@@H](C)O)C(=O)N[C@@H](CO)C(=O)N[C@@H](CCC(=O)O)C(=O)N[C@@H](Cc1ccc(O)cc1)C(=O)N[C@@H](CC(C)C)C(=O)N[C@@H](CC(=O)O)C(=O)N[C@@H](CO)C(=O)N[C@@H](CCC(=O)O)C(=O)N[C@@H](CCCNC(=N)N)C(=O)N[C@@H](C)C(=O)N[C@@H](CCCNC(=N)N)C(=O)N[C@@H](CC(=O)O)C(=O)N[C@@H](Cc1ccccc1)C(=O)N[C@H](C(=O)N[C@@H](C)C(=O)N[C@@H](Cc1c[nH]c2ccccc12)C(=O)N[C@@H](CC(C)C)C(=O)N[C@@H](CCC(=O)O)C(=O)N[C@@H](C)C(=O)NCC(=O)NCC(=O)O)C(C)C)C(=O)O (stereo partly shown) [Peptide G933]
1 (16.7%): TEAE: Headache (5 μg) | TEAE: Nasopharyngitis (5 μg) | TEAE: Nervous system disorders (5 μg) | TEAE: Abdominal pain (10 μg) | TEAE: Atrioventricular block second degree (10 μg) | TEAE: Cardiac Disorders (10 μg) | TEAE: Diarrhea (10 μg) | TEAE: Dizziness (10 μg) | TEAE: Gastrointestinal Disorders (10 μg) | TEAE: Nervous system disorders (10 μg) | TEAE: Application site erosion (30 μg) | TEAE: Dizziness (30 μg) | TEAE: Headache (30 μg) | TEAE: Immune System Disorders (30 μg) | TEAE: Injury poisoning and procedural complications (30 μg) | TEAE: Musculoskeletal and connective tissue disorders (30 μg) | TEAE: Musculoskeletal chest pain (30 μg) | TEAE: Nervous system disorders (30 μg) | TEAE: Procedural dizziness (30 μg) | TEAE: Seasonal allergy (30 μg) | TEAE: Arrhythmia (100 μg) | TEAE: Cardiac Disorders (100 μg) | TEAE: Gastrointestinal Disorders (100 μg) | TEAE: Headache (100 μg) | TEAE: Nausea (100 μg) | TEAE: Vomiting (100 μg)
0: TEAE: Abdominal distension (5 μg) | TEAE: Abdominal pain (5 μg) | TEAE: Application site erosion (5 μg) | TEAE: Arrhythmia (5 μg) | TEAE: Atrioventricular block second degree (5 μg) | TEAE: Cardiac Disorders (5 μg) | TEAE: Decreased appetite (5 μg) | TEAE: Diarrhea (5 μg) | TEAE: Dizziness (5 μg) | TEAE: Gastrointestinal Disorders (5 μg) | TEAE: Immune System Disorders (5 μg) | TEAE: Injury associated with device (5 μg) | TEAE: Injury poisoning and procedural complications (5 μg) | TEAE: Metabolism and nutrition disorders (5 μg) | TEAE: Musculoskeletal and connective tissue disorders (5 μg) | TEAE: Musculoskeletal chest pain (5 μg) | TEAE: Nausea (5 μg) | TEAE: Oropharyngeal pain (5 μg) | TEAE: Procedural dizziness (5 μg) | TEAE: Respiratory, thoracic and mediastinal disorders (5 μg) | TEAE: Seasonal allergy (5 μg) | TEAE: Ventricular extrasystoles (5 μg) | TEAE: Vomiting (5 μg) | TEAE: Abdominal distension (10 μg) | TEAE: Application site erosion (10 μg) | TEAE: Arrhythmia (10 μg) | TEAE: Decreased appetite (10 μg) | TEAE: Headache (10 μg) | TEAE: Immune System Disorders (10 μg) | TEAE: Injury associated with device (10 μg) | TEAE: Injury poisoning and procedural complications (10 μg) | TEAE: Metabolism and nutrition disorders (10 μg) | TEAE: Musculoskeletal and connective tissue disorders (10 μg) | TEAE: Musculoskeletal chest pain (10 μg) | TEAE: Nasopharyngitis (10 μg) | TEAE: Nausea (10 μg) | TEAE: Oropharyngeal pain (10 μg) | TEAE: Procedural dizziness (10 μg) | TEAE: Respiratory, thoracic and mediastinal disorders (10 μg) | TEAE: Seasonal allergy (10 μg) | TEAE: Ventricular extrasystoles (10 μg) | TEAE: Vomiting (10 μg) | TEAE: Abdominal distension (30 μg) | TEAE: Abdominal pain (30 μg) | TEAE: Arrhythmia (30 μg) | TEAE: Atrioventricular block second degree (30 μg) | TEAE: Cardiac Disorders (30 μg) | TEAE: Decreased appetite (30 μg) | TEAE: Diarrhea (30 μg) | TEAE: Gastrointestinal Disorders (30 μg) | TEAE: Injury associated with device (30 μg) | TEAE: Metabolism and nutrition disorders (30 μg) | TEAE: Nasopharyngitis (30 μg) | TEAE: Nausea (30 μg) | TEAE: Oropharyngeal pain (30 μg) | TEAE: Respiratory, thoracic and mediastinal disorders (30 μg) | TEAE: Ventricular extrasystoles (30 μg) | TEAE: Vomiting (30 μg) | TEAE: Abdominal distension (100 μg) | TEAE: Abdominal pain (100 μg) | TEAE: Application site erosion (100 μg) | TEAE: Atrioventricular block second degree (100 μg) | TEAE: Decreased appetite (100 μg) | TEAE: Diarrhea (100 μg) | TEAE: Dizziness (100 μg) | TEAE: Immune System Disorders (100 μg) | TEAE: Injury associated with device (100 μg) | TEAE: Injury poisoning and procedural complications (100 μg) | TEAE: Metabolism and nutrition disorders (100 μg) | TEAE: Musculoskeletal and connective tissue disorders (100 μg) | TEAE: Musculoskeletal chest pain (100 μg) | TEAE: Nasopharyngitis (100 μg) | TEAE: Oropharyngeal pain (100 μg) | TEAE: Procedural dizziness (100 μg) | TEAE: Respiratory, thoracic and mediastinal disorders (100 μg) | TEAE: Seasonal allergy (100 μg) | TEAE: Ventricular extrasystoles (100 μg) | TEAE: Abdominal pain (150 μg) | TEAE: Application site erosion (150 μg) | TEAE: Arrhythmia (150 μg) | TEAE: Atrioventricular block second degree (150 μg) | TEAE: Cardiac Disorders (150 μg) | TEAE: Diarrhea (150 μg)
2 (3.3%): TEAE: Abdominal distension (150 μg)
4 (66.7%): TEAE: Subjects with at least one event (30 μg)
2 (33.3%): TEAE: Subjects with at least one event (5 μg) | TEAE: Nervous system disorders (100 μg) | TEAE: Decreased appetite (150 μg) | TEAE: Dizziness (150 μg)
9 episodes: vomiting episodes (150 μg dose, 4 subjects)
3 (50.0%): TEAE: Subjects with at least one event (10 μg)
1 episode: vomiting episodes (100 μg dose, 1 subject)
